Test results from article PMC13600695, “Identifying a novel mechanism of L-leucine uptake in Mycobacterium tuberculosis using a chemical genomic approach” (eLife, 2026).

Target: PpsB (6x His-PpsB) (Mycobacterium tuberculosis, UniProt P9WQE5)
Experiment: biochemical

Chain of PpsB (6x His-PpsB) (P9WQE5 whole entry): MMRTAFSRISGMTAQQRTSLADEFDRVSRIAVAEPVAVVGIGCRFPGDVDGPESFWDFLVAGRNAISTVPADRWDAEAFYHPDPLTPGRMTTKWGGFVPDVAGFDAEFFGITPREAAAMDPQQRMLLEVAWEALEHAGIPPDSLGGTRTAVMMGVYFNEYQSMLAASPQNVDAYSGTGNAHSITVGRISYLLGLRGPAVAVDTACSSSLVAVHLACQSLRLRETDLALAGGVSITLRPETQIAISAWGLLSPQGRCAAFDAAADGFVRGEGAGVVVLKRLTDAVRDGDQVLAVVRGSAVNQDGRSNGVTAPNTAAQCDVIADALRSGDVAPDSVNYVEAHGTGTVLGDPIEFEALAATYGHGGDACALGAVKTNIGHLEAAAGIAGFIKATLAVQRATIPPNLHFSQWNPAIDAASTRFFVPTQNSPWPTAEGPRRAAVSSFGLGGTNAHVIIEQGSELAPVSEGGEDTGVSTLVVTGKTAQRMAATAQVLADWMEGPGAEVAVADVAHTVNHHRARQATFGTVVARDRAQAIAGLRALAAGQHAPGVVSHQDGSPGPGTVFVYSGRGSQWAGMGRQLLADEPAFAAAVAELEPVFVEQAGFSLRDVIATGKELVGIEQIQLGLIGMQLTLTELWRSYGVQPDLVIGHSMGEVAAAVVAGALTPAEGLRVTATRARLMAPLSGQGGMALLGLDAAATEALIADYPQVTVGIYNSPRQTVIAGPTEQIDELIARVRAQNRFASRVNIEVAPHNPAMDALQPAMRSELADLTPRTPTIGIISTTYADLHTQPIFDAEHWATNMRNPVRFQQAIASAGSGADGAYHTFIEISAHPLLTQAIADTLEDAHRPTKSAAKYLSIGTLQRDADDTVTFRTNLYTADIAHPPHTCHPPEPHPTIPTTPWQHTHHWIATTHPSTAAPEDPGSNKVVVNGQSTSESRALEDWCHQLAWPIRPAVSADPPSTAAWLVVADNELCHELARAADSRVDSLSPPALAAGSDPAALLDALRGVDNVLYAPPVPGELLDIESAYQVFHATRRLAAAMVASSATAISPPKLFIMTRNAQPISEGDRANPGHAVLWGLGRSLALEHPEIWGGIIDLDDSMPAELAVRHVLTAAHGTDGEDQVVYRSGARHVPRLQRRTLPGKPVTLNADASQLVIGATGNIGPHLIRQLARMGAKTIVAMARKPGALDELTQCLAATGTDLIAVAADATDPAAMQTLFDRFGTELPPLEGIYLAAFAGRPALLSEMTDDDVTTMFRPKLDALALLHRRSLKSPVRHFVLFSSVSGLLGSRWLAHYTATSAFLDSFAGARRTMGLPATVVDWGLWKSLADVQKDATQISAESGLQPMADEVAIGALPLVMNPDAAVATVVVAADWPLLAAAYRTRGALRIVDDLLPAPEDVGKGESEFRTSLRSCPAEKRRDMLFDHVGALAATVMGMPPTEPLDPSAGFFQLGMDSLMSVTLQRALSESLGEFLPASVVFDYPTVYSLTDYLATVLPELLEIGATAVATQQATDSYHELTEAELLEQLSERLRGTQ

Q: C/C(=N\NC(=N)N)c1cc(NC(=O)CCCCCCCCC(=O)Nc2cc(/C(C)=N/NC(=N)N)cc(/C(C)=N/NC(=N)N)c2)cc(/C(C)=N/NC(=N)N)c1 [semapimod] was tested. Which Kd did it give?
A: The Kd was 110 nM.
